Data set [1] can be described thus: Vmax/Km x100 value of the compound. The class given is ADME.
The target of data set [2] is T1, Phenylethanolamine N-methyltransferase (Bos taurus, UniProt P10938).
T1 sequence (P10938 whole entry): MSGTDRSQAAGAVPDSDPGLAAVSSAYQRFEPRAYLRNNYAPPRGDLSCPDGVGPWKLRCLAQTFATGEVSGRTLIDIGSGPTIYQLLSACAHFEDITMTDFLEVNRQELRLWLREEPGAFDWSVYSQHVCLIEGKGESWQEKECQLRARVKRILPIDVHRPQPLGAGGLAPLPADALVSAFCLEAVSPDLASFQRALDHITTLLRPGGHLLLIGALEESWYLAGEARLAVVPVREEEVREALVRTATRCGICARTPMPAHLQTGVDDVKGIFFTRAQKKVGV
The data set is described as follows: (§1) The inhibitory constant(Ki) value for Norepinephrine N-methyl-transferase was calculated.

Compound in data set [3]: NCC(O)c1cccc(-c2ccccc2)c1
The data set is described as §1.

Compound in data set [4]: NCC(O)c1ccc(-c2ccccc2)cc1
Described as §1.

Compound in data set [5]: NCC(O)c1cccc2ccccc12
Described as §1.

Compound in data set [6]: NCC(O)c1ccc2ccccc2c1
The description is as §1.

The term Ki denotes the dissociation constant of the complex between target and ligand, obtained from inhibition or displacement. As usually defined, the Km is the substrate concentration at which the rate is half of its maximum.

For the molecule `NCC(O)c1cccc(-c2ccccc2)c1` (stereo not drawn), in data set [1], the “Vmax / Kmax100” value was 1.42.

In the case of `NC[C@@H](O)c1ccccc1`, the “Vmax / Kmax100” value in data set [1] turned out to be 1.62.

For the molecule `CC(N)Cc1cccc(-c2ccccc2)c1` (stereo not drawn), the Ki in data set [2] was > 2000 µM. On to `CC(N)c1cccc(-c2ccccc2)c1` (stereo not drawn), for which the Ki in data set [2] is 89 µM. Turning to `NCC(O)c1ccc(-c2ccccc2)cc1` (stereo not drawn), the “Vmax / Kmax100” value in data set [1] turned out to be 5.44.

On to `NCC(O)c1ccc2ccccc2c1` (stereo not drawn), for which, in data set [1], the “Vmax / Kmax100” value worked out at 5.6.

For the molecule `CC(N)c1ccc(-c2ccccc2)cc1` (stereo not drawn), the Ki in data set [2] is 737 µM. Turning to `CC(N)Cc1ccc(-c2ccccc2)cc1` (stereo not drawn), in data set [2], the Ki is 262 µM. For the molecule `NCC(O)c1cccc2ccccc12` (stereo not drawn), in data set [1], the “Vmax / Kmax100” value is 1.29.

B1: Phenylethanolamine N-methyltransferase (Bos taurus), P10938 (protein)
chain: T1 sequence (P10938 whole entry)
For the molecule B1, the Km is 656 µM in data set [3], 64 µM in data set [4], 132 µM in data set [5] and 20 µM in data set [6].
